The values that follow come from patent US7208309B2, “Inhibitor-resistant HCV NS3 protease” (priority 2002, dated 2007).

Read-outs that look alike come from different tables or passages of the source. Numbered stars: 1 amine (or outer) side, 2 acyl side, 3 side chain; on linkers, the order of the positions; unused ones are H or OH. Square brackets hold non-standard residues; d marks the D form. Peptide text beside a SMILES is read from it. * marks the point of attachment. Hyp(2-Ph-quinolin-4-yl) = O=C(O)[C@@H]1C[C@@H](Oc2cc(-c3ccccc3)nc3ccccc23)CN1; X1 = C=CC1C[C@]1(N[*:1])C(=O)[*:2]; Hyp = O=C(O)[C@@H]1C[C@@H](O)CN1; Chg = N[C@H](C(=O)O)C1CCCCC1; Tle = CC(C)(C)[C@H](N)C(=O)O; Nva = CCC[C@H](N)C(=O)O; Bn = c1ccc(C*)cc1

Test [1] deals with bicistronic subgenomic HCV RNA replicon (S22.3 cell line). The test can be described thus: HCV RNA replicon cell culture EC50 of the inhibitors used for selection. The class given is cell-based. Particulars: EC50 stated for the inhibitor used in resistance selection, replicon cells. The source says:
The method described by Lohmann et al. (1999, Science 285:110) was used to mimic the replication of subgenomic HCV RNA in a system that is dependent on the function of HCV non-structural proteins and enzymes. This HCV RNA replicon system incorporates two cistrons: one encoding the HCV non-structural region and the second encoding a selectable neomycin resistant marker (i.e. gene encoding neomycin phosphotransferase). As one of skill in the art will appreciate, the second cistron may encode any marker suitable for selection purposes. Cell lines harboring such bicistronic, subgenomic HCV RNA, such as the S22.3 cell line, are described by Kukolj and Pause (see WO 02/052015, the contents of which are hereby incorporated by reference). These cell lines are useful in evaluating the efficacy and potency of potential anti-HCV therapeutics that inhibit one or more of the HCV non-structural proteins.
As shown, Huh-7 cells (8×10^6 cells) were transfected with the bicistronic subgenomic HCV RNA using transfection methods well-established in the art. Transfected Huh-7 cells were selected by growth in neomycin-containing media (0.5 mg/ml neomycin). Specifically, transfected cells replicate the RNA that produces neomycin phosphotransferase thereby rendering the cells resistant to the cytotoxic effect of neomycin. Mutated HCV replicons as described in WO 02/052015 can also be used in accordance with the present method to increase RNA replication and efficiency of replicon establishment.
inhibitor A=cyclopropa[e]pyrrolo [1,2-a][1,4]diazacyclopentadecine-14a(5H)-carboxylic acid, 6-[[(cyclopentyloxy) carbonyl]amino]-1,2,3,6,7,8,9,10,11,13a, 14,15,16,16a-tetradecahydro-2-[[7-methoxy-2-[2-[(1-methylethyl)amino]-4-thiazolyl]-4-quinolinyl]oxy]-5,16-dioxo-, (2R,6S, 12Z, 13aS, 14aR, 16aS), which is described as compound #822 in WO 00/59929, the contents of which is hereby incorporated by reference. The colonies were grown in the presence of increasing concentrations of this inhibitor (EC50 of 2 nM) ranging from 2 nM to 2000 nM.
(Replicon systems follow genome replication, usually without infectious particles.)

In test [2] the target is T1, NS3-NS4A protein A156T (Hepatitis C virus genotype 1b, UniProt Q9WMX2, A1182T).
T1 construct: TEV protease cleavage site (N); made in house; host or cells: E. coli (pET11a)
The test can be described thus: In vitro enzyme assay, Ki, full length NS3/NS4A protein A156T. The class given is biochemical, HCV genotype 1b. The source says: (§1) DNA encoding the NS3-NS4A coding region of HCV genotype 1b, that includes a 28-residue N-terminal sequence containing a hexahistidine tag and a TEV protease cleavage (Pause, A. et al. (2003) J. Biol. Chem. 278: 20374–20380) was amplified by PCR and then subcloned into the pET11a bacterial expression vector. Amino acid substitutions A156T and D168V were introduced into the NS3-NS4A coding region using standard site-directed mutagenesis procedures.
(§2) The NS3 protease domain (harboring A156T or D168V or R155Q mutations) were expressed in E. coli and purified as previously described (LaPlante, S. R. et al (1999) J. Biol. Chem. 274: 18618–18624). […]
(§3) Ki determination—The inhibition constant (Ki) was determined using the depsipeptide fluorogenic substrate anthranilyl-DDIVPAbu[C(O)—O]AMY(3-NO2)TW-OH. The cleavage reaction was continuously monitored at 23° C. on a BMG POLARstar® Galaxy fluorometer, equipped with excitation and emission filters of 320 and 405 nm respectively. […] IC50's were obtained from a non-linear curve fit using the Hill model applied to the % inhibition-concentration data and calculated through the use of SAS (Statistical Software System, SAS Institute Inc., Cary, N.C.).

Test [3] deals with T2, NS3-NS4A protein WT (Hepatitis C virus genotype 1b, UniProt Q9WMX2).
T2 construct: TEV protease cleavage site (N); made in house; host or cells: E. coli (pET11a)
The test can be described thus: In vitro enzyme assay, Ki, full length NS3/NS4A protein WT. Format: biochemical, HCV genotype 1b.
Text: as §1
(§4) The NS3 protease domain (harboring A156T or D168V or R155Q mutations) were expressed in E. coli and purified as previously described (LaPlante, S. R. et al (1999) J. Biol. Chem. 274: 18618–18624). The NS3-NS4A proteins with either A156T or D168V mutation were also expressed in E. coli and the cell paste was resuspended in 5 mL of lysis buffer (50 mM sodium phosphate, pH 7.5, 20% glycerol, 1 mM EDTA, 0.5% Triton X-100, 0.5 M NaCl) per gram of cells, treated with DNase I, then clarified by a 30-min centrifugation at 150,000×g; the supernatant was diluted 2-fold in 50 mM sodium phosphate, pH 7.5, 0.5 M NaCl and imidazole was added to a final concentration of 25 mM. The NS3-NS4A complex solution was purified by successive steps on a Hi-Trap Ni^+2-chelating column, and poly(U)-Sepharose affinity column previously equilibrated in 50 mM sodium phosphate, pH 7.0, 10% glycerol, 0.2 M NaCl, 0.05% n-dodecyl-β-D-maltoside, 10 mM β-mercaptoethanol. The enzyme was eluted in the same buffer containing 2 M NaCl. The isolated enzymes were stored at −80° C.
as §3

The target in test [4] is T3, NS3-NS4A protein D168V (Hepatitis C virus genotype 1b, UniProt Q9WMX2, D1194V).
T3 construct: TEV protease cleavage site (N); made in house; host or cells: E. coli (pET11a)
The test can be described thus: In vitro enzyme assay, Ki, full length NS3/NS4A protein D168V. Format: biochemical, HCV genotype 1b.
Text: as §1, §4, §3

The target of test [5] is T4, NS3 protease (1-180) WT-NS4A peptide complex (Hepatitis C virus genotype 1b, UniProt Q9WMX2).
T4 construct: the NS3 protease (1–180) coding region for wild-type; made in house; host or cells: bacterial expression vector (E. coli)
The test can be described thus: In vitro enzyme assay, Ki, NS3 protease-NS4A peptide complex WT. Format: biochemical, HCV.
Text: (§5) Alternatively, the NS3 protease (1–180) coding region for wild-type with the sequence ASKKKK at the C-terminus was cloned into a bacterial expression vector and amino acid substitutions A156T, D168V and R155Q were introduced as described above.
as §2, §3

The target in test [6] is T5, NS3 protease (1-180) R155Q-NS4A peptide complex (Hepatitis C virus genotype 1b, UniProt Q9WMX2, R1181Q).
T5 construct: the NS3 protease (1–180) coding region for wild-type; made in house; host or cells: E. coli
The test can be described thus: In vitro enzyme assay, Ki, NS3 protease-NS4A peptide complex R155Q. The class given is biochemical, HCV. Particulars: calculated Ki from IC50.
Text: as §5, §2, §3

In test [7] the test system is NS3 A156V mutant HCV subgenomic replicon in Huh-7 cells. The test can be described thus: Inhibitor EC50 in NS3 A156V mutant replicon cell line. Format: cell-based. Particulars: Hepatitis C virus, Huh-7, read-out: EC50, A156V. The source says: (§6) Specific isogenic HCV subgenomic replicon cDNAs individually containing only one of the inhibitor-resistant mutations, i.e. (in this example: A156T; or A156V; or D168V; or D168G) were cloned and corresponding in vitro transcribed RNA of these modified bi-cistronic replicons were generated. The mutant-encoding RNAs were used to construct mutant-containing replicon cell lines in naïve Huh-7 cells as described previously for other HCV replicons. […] They were also used to determine the level of inhibition of the mutant inhibitor-resistant cell lines in the presence of an unrelated HCV NS5B polymerase inhibitor or alpha-interferon. Using the assay described in WO 03/010141 (Example 48) the EC50 of each inhibitor was determined using the mutant cell lines.

The subject of test [8] is NS3 A156T mutant HCV subgenomic replicon in Huh-7 cells. The test can be described thus: Inhibitor EC50 in NS3 A156T mutant replicon cell line. The conditions noted are these: Hepatitis C virus, Huh-7, read-out: EC50, A156T. Format: cell-based.
Text: as §6

Test [9] addresses T6, NS3 protease (1-180) D168V-NS4A peptide complex (Hepatitis C virus genotype 1b, UniProt Q9WMX2, D1194V).
T6 construct: the NS3 protease (1–180) coding region for wild-type; made in house; host or cells: E. coli
The test can be described thus: In vitro enzyme assay, Ki, NS3 protease-NS4A peptide complex D168V. The class given is biochemical, HCV. The conditions noted are these: calculated Ki from IC50.
Text: as §5, §2, §3

The subject of test [10] is NS3 D168V mutant HCV subgenomic replicon in Huh-7 cells. The test can be described thus: Inhibitor EC50 in NS3 D168V mutant replicon cell line. Format: cell-based. Particulars: Hepatitis C virus, Huh-7, read-out: EC50, D168V.
Text: as §6

Test [11] relates to WT HCV subgenomic replicon in Huh-7 cells. The test can be described thus: Inhibitor EC50 in WT replicon cell line. The class given is cell-based. The conditions noted are these: Hepatitis C virus.
The target in test [12] is T7, NS3 protease (1-180) A156T-NS4A peptide complex (Hepatitis C virus genotype 1b, UniProt Q9WMX2, A1182T).
T7 construct: the NS3 protease (1–180) coding region for wild-type; made in house; host or cells: E. coli
The test can be described thus: In vitro enzyme assay, Ki, NS3 protease-NS4A peptide complex A156T. Format: biochemical, HCV. The conditions noted are these: calculated Ki from IC50.
Text: as §5, §2, §3

Test [13] relates to NS3 D168G mutant HCV subgenomic replicon in Huh-7 cells. The test can be described thus: Inhibitor EC50 in NS3 D168G mutant replicon cell line. Particulars: Hepatitis C virus, Huh-7, read-out: EC50, D168G. The class given is cell-based.
Text: as §6

With `COc1ccc2c(O[C@@H]3C[C@H]4C(=O)N[C@]5(C(=O)O)C[C@H]5/C=C\CCCCC[C@H](NC(=O)OC(C)(C)C)C(=O)N4C3)cc(-c3csc(NC(C)=O)n3)nc2c1` [inhibitor C, Cyclopropa[e]pyrrolo[1,2-a][1,4]-diazacyclopentadecine-14a(5H)-carboxylic acid, 2-[[2-[2-(acetylamino)-4-thiazolyl]-7-methoxy-4-quinolinyl]oxy]-6-[[(1,1-dimethylethoxy)carbonyl]amino]-1,2,3,6,7,8,9,10,11,13a,14,15,16,16a-tetradecahydro-5,16-dioxo-, (2R,6S, 12Z, 13aS, 14aR, 16aS)-], the EC50 (commonly the concentration needed to bring the measured effect to its halfway point) in test [1] is 5 nM.

With `C=C[C@@H]1C[C@]1(NC(=O)[C@@H]1C[C@@H](Oc2cc(-c3csc(NC(C)=O)n3)nc3cc(OC)ccc23)CN1C(=O)[C@@H](NC(=O)OC1CCCC1)C(C)(C)C)C(=O)O` [inhibitor B, cyclopropane carboxylic acid, N-[(cyclopentyloxy)carbonyl]-3-methyl-L-valyl-(4R)-4-[[2-[2-(acetylamino)-4-thiazolyl]-7-methoxy-4-quinolinyl]oxy]-L-prolyl-1-amino-2-ethenyl-, (1R,2S)-], in test [1], the midpoint of the response, the EC50, lay at 40 nM.

Consider `C=CC1C[C@]1(NC(=O)[C@@H]1C[C@@H](Oc2cc(-c3ccccc3)nc3ccccc23)CN1C(=O)[C@@H](NC(=O)[C@@H](NC(=O)[C@@H](CCC(=O)O)NC(=O)[C@H](CC(=O)O)NC(C)=O)C1CCCCC1)C(C)(C)C)C(=O)O` (some centres unmarked) [Compound F] (Ac-D[dE][Chg][Tle][Hyp(2-Ph-quinolin-4-yl)][X1]-OH), for which the Ki (usually a dissociation constant, usually derived from enzyme kinetics or from competition with a known ligand) in test [2] (read-out: Ki, A156T) was determined as 29 nM; in test [3], 0.047 nM; in test [4] (read-out: Ki, D168V) it was 12 nM.

Take `COc1ccc2c(O[C@@H]3C[C@H]4C(=O)N[C@]5(C(=O)O)C[C@H]5/C=C\CCCCC[C@H](NC(=O)OC5CCCC5)C(=O)N4C3)cc(-c3csc(NC(C)C)n3)nc2c1` [inhibitor A, cyclopropa[e]pyrrolo [1,2-a][1,4]diazacyclopentadecine-14a(5H)-carboxylic acid, 6-[[(cyclopentyloxy)carbonyl]amino]-1,2,3,6,7,8,9,10,11,13a, 14,15,16,16a-tetradecahydro-2-[[7-methoxy-2-[2-[(1-methylethyl)amino]-4-thiazolyl]-4-quinolinyl]oxy]-5,16-dioxo-, (2R,6S, 12Z, 13aS, 14aR, 16aS)]: the Ki is 5.6 nM in test [5]; 870 nM in test [2] (calculated Ki from IC50, read-out: Ki, A156T (calculated Ki from IC50)); 220 nM in [6]; 1.6 nM in test [3]; 970 nM in [9]; 520 nM in [4] (calculated Ki from IC50, read-out: Ki, D168V (calculated Ki from IC50)). Besides, in [12], the Ki is 800 nM. In addition, the EC50 in test [7] was found to be 324 nM; in test [8], 547 nM; in [10] it was 735 nM; in test [11] it was 0.9 nM; in [13] it was 23 nM; in [1] (Hepatitis C virus) it was 2 nM.

Consider `CCC[C@H](NC(=O)[C@@H]1C[C@@H](OCc2ccccc2)CN1C(=O)[C@@H](NC(=O)[C@@H](NC(=O)[C@@H](CCC(=O)O)NC(=O)[C@H](CC(=O)O)NC(C)=O)[C@@H](C)CC)C(C)C)C(=O)O` [Compound E] (Ac-D[dE]IV[Hyp](Bn)[Nva]-OH), for which the Ki in [3] is 1600 nM; in [4] (read-out: Ki, D168V), 8100 nM.
